Activity calls are given as the source filed them. No cut-off for these calls is given here.
What was measured:
Nucleic Acid [1] = assay: Binding affinity to Escherichia coli pUC19 DNA assessed as form 1 DNA level at 0.130 mM after 23.52 hrs by agarose gel electrophoresis; assay type: nucleic-acid assay
Nucleic Acid [2] = assay: Binding affinity to Escherichia coli pUC19 DNA assessed as form 1 DNA level at 0.262 mM after 28.18 hrs by agarose gel electrophoresis; assay type: nucleic-acid assay
Nucleic Acid [3] = assay: Binding affinity to Escherichia coli pUC19 DNA assessed as form 2 DNA level at 0.175 mM after 27.33 hrs by agarose gel electrophoresis; assay type: nucleic-acid assay
HL-60 [4] = assay: Growth inhibition of human HL60 cells at 100 uM after 72 hrs by MTT assay; assay type: functional; set-up: scale not given: the % may be the effect or the level left
Nucleic Acid [5] = assay: Binding affinity to supercoiled Escherichia coli pUC19 DNA assessed as formation of nicked circular DNA at 1.10 mM at pH 6.0 for 24 hrs in presence of tertiary butyl hydroxide by agarose gel electrophoresis; assay type: nucleic-acid assay
Nucleic Acid [6] = assay: Binding affinity to Escherichia coli pUC19 DNA assessed as form 2 DNA level at 0.320 mM after 27.33 hrs by agarose gel electrophoresis; assay type: nucleic-acid assay
HeLa [7] = assay: Growth inhibition of human HeLa cells at 1000 uM after 72 hrs by MTT assay; assay type: functional; set-up: scale not given: the % may be the effect or the level left
Nucleic Acid [8] = assay: Binding affinity to Escherichia coli pUC19 DNA assessed as form 2 DNA level at 0.463 mM after 27.33 hrs by agarose gel electrophoresis; assay type: nucleic-acid assay
Nucleic Acid [9] = assay: Binding affinity to Escherichia coli pUC19 DNA assessed as form 1 DNA level at 0.320 mM after 4.95 hrs by agarose gel electrophoresis; assay type: nucleic-acid assay
Nucleic Acid [10] = assay: Binding affinity to Escherichia coli pUC19 DNA assessed as form 1 DNA level at 0.175 mM after 23.12 hrs by agarose gel electrophoresis; assay type: nucleic-acid assay
Nucleic Acid [11] = assay: Binding affinity to Escherichia coli pUC19 DNA assessed as form 1 DNA level at 0.698 mM after 6.42 hrs by agarose gel electrophoresis; assay type: nucleic-acid assay
Nucleic Acid [12] = assay: Binding affinity to Escherichia coli pUC19 DNA assessed as form 1 DNA level at 0.130 mM after 5.42 hrs by agarose gel electrophoresis; assay type: nucleic-acid assay
Nucleic Acid [13] = assay: Binding affinity to Escherichia coli pUC19 DNA assessed as form 2 DNA level at 0.698 mM after 10.70 hrs by agarose gel electrophoresis; assay type: nucleic-acid assay
Nucleic Acid [14] = assay: Binding affinity to Escherichia coli pUC19 DNA assessed as form 1 DNA level at 0.698 mM after 10.70 hrs by agarose gel electrophoresis; assay type: nucleic-acid assay
Nucleic Acid [15] = assay: Binding affinity to Escherichia coli pUC19 DNA assessed as form 1 DNA level at 0.349 mM by agarose gel electrophoresis; assay type: nucleic-acid assay
Nucleic Acid [16] = assay: Binding affinity to Escherichia coli pUC19 DNA assessed as form 1 DNA level at 0.175 mM after 25.35 hrs by agarose gel electrophoresis; assay type: nucleic-acid assay
Nucleic Acid [17] = assay: Binding affinity to Escherichia coli pUC19 DNA assessed as form 1 DNA level at 0.262 mM after 25.02 hrs by agarose gel electrophoresis; assay type: nucleic-acid assay
Nucleic Acid [18] = assay: Binding affinity to Escherichia coli pUC19 DNA assessed as form 2 DNA level at 0.262 mM after 28.18 hrs by agarose gel electrophoresis; assay type: nucleic-acid assay
Nucleic Acid [19] = assay: Binding affinity to Escherichia coli pUC19 DNA assessed as form 2 DNA level at 0.463 mM after 31.48 hrs by agarose gel electrophoresis; assay type: nucleic-acid assay
Nucleic Acid [20] = assay: Binding affinity to Escherichia coli pUC19 DNA assessed as form 2 DNA level at 0.262 mM after 25.02 hrs by agarose gel electrophoresis; assay type: nucleic-acid assay
Nucleic Acid [21] = assay: Binding affinity to Escherichia coli pUC19 DNA assessed as form 2 DNA level at 0.320 mM after 9.07 hrs by agarose gel electrophoresis; assay type: nucleic-acid assay
Nucleic Acid [22] = assay: Binding affinity to Escherichia coli pUC19 DNA assessed as form 1 DNA level at 0.175 mM after 31.48 hrs by agarose gel electrophoresis; assay type: nucleic-acid assay
Nucleic Acid [23] = assay: Binding affinity to Escherichia coli pUC19 DNA assessed as form 2 DNA level at 0.130 mM after 8.08 hrs by agarose gel electrophoresis; assay type: nucleic-acid assay
Nucleic Acid [24] = assay: Binding affinity to Escherichia coli pUC19 DNA assessed as form 1 DNA level at 0.349 mM after 24.08 hrs by agarose gel electrophoresis; assay type: nucleic-acid assay
Nucleic Acid [25] = assay: Binding affinity to Escherichia coli pUC19 DNA assessed as form 2 DNA level at 0.175 mM after 23.12 hrs by agarose gel electrophoresis; assay type: nucleic-acid assay
Nucleic Acid [26] = assay: Binding affinity to Escherichia coli pUC19 DNA assessed as form 1 DNA level at 0.130 mM after 8.08 hrs by agarose gel electrophoresis; assay type: nucleic-acid assay
Nucleic Acid [27] = assay: Binding affinity to Escherichia coli pUC19 DNA assessed as form 2 DNA level at 0.349 mM after 24.08 hrs by agarose gel electrophoresis; assay type: nucleic-acid assay
Nucleic Acid [28] = assay: Binding affinity to Escherichia coli pUC19 DNA assessed as form 2 DNA level at 0.698 mM after 3.72 hrs by agarose gel electrophoresis; assay type: nucleic-acid assay
Nucleic Acid [29] = assay: Binding affinity to Escherichia coli pUC19 DNA assessed as form 2 DNA level at 0.698 mM after 14.22 hrs by agarose gel electrophoresis; assay type: nucleic-acid assay
Nucleic Acid [30] = assay: Binding affinity to Escherichia coli pUC19 DNA assessed as form 2 DNA level at 0.175 mM after 25.35 hrs by agarose gel electrophoresis; assay type: nucleic-acid assay
HeLa [31] = assay: Growth inhibition of human HeLa cells at 10 uM after 72 hrs by MTT assay; assay type: functional; set-up: scale not given: the % may be the effect or the level left
HL-60 [32] = assay: Growth inhibition of human HL60 cells at 1000 uM after 72 hrs by MTT assay; assay type: functional; set-up: scale not given: the % may be the effect or the level left
Nucleic Acid [33] = assay: Binding affinity to Escherichia coli pUC19 DNA assessed as form 1 DNA level at 0.698 mM after 12.13 hrs by agarose gel electrophoresis; assay type: nucleic-acid assay
Nucleic Acid [34] = assay: Binding affinity to Escherichia coli pUC19 DNA assessed as form 1 DNA level at 0.320 mM after 13.07 hrs by agarose gel electrophoresis; assay type: nucleic-acid assay
Nucleic Acid [35] = assay: Binding affinity to Escherichia coli pUC19 DNA assessed as form 1 DNA level at 0.349 mM after 26.15 hrs by agarose gel electrophoresis; assay type: nucleic-acid assay
Nucleic Acid [36] = assay: Binding affinity to Escherichia coli pUC19 DNA assessed as form 1 DNA level at 0.463 mM after 23.12 hrs by agarose gel electrophoresis; assay type: nucleic-acid assay
Nucleic Acid [37] = assay: Binding affinity to Escherichia coli pUC19 DNA assessed as form 1 DNA level at 0.698 mM by agarose gel electrophoresis; assay type: nucleic-acid assay
Nucleic Acid [38] = assay: Binding affinity to Escherichia coli pUC19 DNA assessed as form 2 DNA level at 0.463 mM after 25.35 hrs by agarose gel electrophoresis; assay type: nucleic-acid assay
Nucleic Acid [39] = assay: Binding affinity to Escherichia coli pUC19 DNA assessed as form 1 DNA level at 0.320 mM after 23.12 hrs by agarose gel electrophoresis; assay type: nucleic-acid assay
Nucleic Acid [40] = assay: Binding affinity to Escherichia coli pUC19 DNA assessed as form 1 DNA level at 0.130 mM by agarose gel electrophoresis; assay type: nucleic-acid assay
Nucleic Acid [41] = assay: Binding affinity to Escherichia coli pUC19 DNA assessed as form 2 DNA level at 0.130 mM after 23.52 hrs by agarose gel electrophoresis; assay type: nucleic-acid assay

With `Cl.Cl.NNC1=NCC(O)CN1` (stereo unspecified) as the molecule, how does the Activity (Nucleic Acid [1]) read?
Its Activity is 74%.

And the Activity (Nucleic Acid [2])?
The Activity was 84.1%.

What about the Activity (Nucleic Acid [3]) of the same molecule?
The Activity was 24%.

What about the Activity (HL-60 [4]) of the same molecule?
Its Activity is 70%.

What about the Activity (Nucleic Acid [5]) of the same molecule?
The Activity was “inactive”.

And the Activity (Nucleic Acid [6])?
Its Activity is 67.8%.

And the Activity (HeLa [7])?
Its Activity is 0%.

And the Activity (Nucleic Acid [8])?
Its Activity is 40.6%.

What about the Activity (Nucleic Acid [9]) of the same molecule?
Its Activity is 94%.

What about the Activity (Nucleic Acid [10]) of the same molecule?
Its Activity is 80.8%.

And the Activity (Nucleic Acid [11])?
The Activity was 86.6%.

What about the Activity (Nucleic Acid [12]) of the same molecule?
The Activity was 85%.

What about the Activity (Nucleic Acid [13]) of the same molecule?
Its Activity is 21.8%.

What about the Activity (Nucleic Acid [14]) of the same molecule?
Its Activity is 78.2%.

What about the Activity (Nucleic Acid [15]) of the same molecule?
The Activity was 97.5%.

What about the Activity (Nucleic Acid [16]) of the same molecule?
The Activity was 78.9%.

And the Activity (Nucleic Acid [17])?
The Activity was 88.1%.

And the Activity (Nucleic Acid [18])?
Its Activity is 15.9%.

And the Activity (Nucleic Acid [19])?
Its Activity is 48.9%.

What about the Activity (Nucleic Acid [20]) of the same molecule?
The Activity was 11.9%.

And the Activity (Nucleic Acid [21])?
Its Activity is 91.7%.

And the Activity (Nucleic Acid [22])?
Its Activity is 74%.

And the Activity (Nucleic Acid [23])?
Its Activity is 16.2%.

And the Activity (Nucleic Acid [24])?
The Activity was 71.9%.

And the Activity (Nucleic Acid [25])?
Its Activity is 19.2%.

What about the Activity (Nucleic Acid [26]) of the same molecule?
Its Activity is 83.8%.

What about the Activity (Nucleic Acid [27]) of the same molecule?
Its Activity is 28.1%.

What about the Activity (Nucleic Acid [28]) of the same molecule?
The Activity was 5.08%.

What about the Activity (Nucleic Acid [29]) of the same molecule?
The Activity was 28.4%.

And the Activity (Nucleic Acid [30])?
Its Activity is 21.1%.

What about the Activity (HeLa [31]) of the same molecule?
Its Activity is 0%.

And the Activity (HL-60 [32])?
The Activity was 91%.

And the Activity (Nucleic Acid [33])?
Its Activity is 77%.

What about the Activity (Nucleic Acid [34]) of the same molecule?
Its Activity is 84.7%.

What about the Activity (Nucleic Acid [35]) of the same molecule?
Its Activity is 68.5%.

What about the Activity (Nucleic Acid [36]) of the same molecule?
Its Activity is 62%.

And the Activity (Nucleic Acid [37])?
Its Activity is 98.1%.

And the Activity (Nucleic Acid [38])?
Its Activity is 39.8%.

What about the Activity (Nucleic Acid [39]) of the same molecule?
Its Activity is 68%.

And the Activity (Nucleic Acid [40])?
Its Activity is 88.6%.

What about the Activity (Nucleic Acid [41]) of the same molecule?
The Activity was 26%.

— ChEMBL document CHEMBL1154064, “Synthesis and DNA cleavage activity of 2-hydrazinyl-1,4,5,6-tetrahydropyrimidine containing hydroxy group” (2009)
